The values that follow come from paper PMC8225200, “Epipregnanolone as a Positive Modulator of GABAA Receptor in Rat Cerebellar and Hippocampus Neurons” (Biomolecules, 2021).

What all share (test): whole-cell patch clamp, GABA-induced chloride current
Assay type in all cases: cell-based
In general terms: In patch-clamp work, channel activity is measured electrically.

The subject of experiment [1] is T1, GABAA receptor (native, rat cerebellar Purkinje cells).
T1 construct: gene Gabra1; native heteropentameric receptors in acutely isolated Purkinje neurons
Particulars: positive allosteric modulator, 2 µM GABA co-applied, pH 7.4, holding -70 mV.

In experiment [2] the test system is T2, GABAA receptor (native, rat hippocampal CA3 pyramidal neurons).
T2 construct: gene Gabra1; native heteropentameric receptors in acutely isolated CA3 pyramidal neurons; subunit composition not determined
Particulars: positive allosteric modulator; 2 µM GABA co-applied; pH 7.4; holding -70 mV.

For experiment [3], the system named is T1, GABAA receptor (native, rat cerebellar Purkinje cells). As to conditions: weak inhibition; 2 µM GABA co-applied; pH 7.4; holding -70 mV.

For orientation: EC50 means the concentration that produces a half-maximal response. A lower EC50 goes with higher potency in that assay. In experiment [1] (fit to rising phase of bell-shaped curve), `CC(=O)[C@H]1CC[C@H]2[C@@H]3CC[C@H]4C[C@H](O)CC[C@]4(C)[C@H]3CC[C@]12C` [ALLO, 3α-hydroxy-5α-pregnan-20-one] displayed an EC50 of 0.29 ± 0.06 µM.

Take `CC(=O)[C@H]1CC[C@H]2[C@@H]3CC[C@@H]4C[C@@H](O)CC[C@]4(C)[C@H]3CC[C@]12C` [Epi, 3β-hydroxy-5β-pregnan-20-one]: the EC50 in experiment [2] amounted to 9.3 ± 2.9 µM; in experiment [1] it was 5.7 ± 1.9 µM.

As for `CC(=O)[C@H]1CC[C@H]2[C@@H]3CC[C@H]4C[C@@H](O)CC[C@]4(C)[C@H]3CC[C@]12C` [Iso, 3β-hydroxy-5α-pregnan-20-one], in experiment [3], the “% of control current at 100 μM” value is recorded as 84 ± 4%.
